Source: patent US11299782B2, “Methods for predicting anti-cancer response” (Children's Medical Center Corporation, priority 2012, dated 2022)

System: operable TNBC
Experiment: Cisplatin-1 clinical trial: preoperative cisplatin monotherapy, pathologic response
Format: in vivo, human
Description: We performed a clinical trial, Cisplatin-1, in which 28 patients with operable TNBC were treated preoperatively with cisplatin monotherapy. […] A second trial, Cisplatin-2, accrued 51 patients with TNBC who received the same preoperative cisplatin regimen as Cisplatin-1, but in combination with the angiogenesis inhibitor bevacizumab (Ryan, P. D., et al. Neoadjuvant cisplatin and bevacizumab in triple negative breast cancer (TNBC): Safety and Efficacy. J Clin Oncol 2009; 27: 551). Response rate in Cisplatin-2 were similar to Cisplatin-1. […] In Cisplatin-2, 8 patients carried a germline BRCA1 or BRCA2 mutation, of which 4 patients achieved a pCR or near pCR to the cisplatin-bevacizumab regimen. In both trials, all patients had research sequencing to determine their germline BRCA1 and BRCA2 status. Thus in some aspects of all the embodiments of the invention, the BRCA1 and BRCA2 status can be determined either simultaneously with or before the allelic imbalance or telomeric allelic imbalance analysis. In some aspects, only patients without BRCA1 or BRCA2 mutations are subjected to the NAI (number of allelic imbalance) or NtAI (number of telomeric allelic imbalance) assays or analyses. Cisplatin was used as an example of platinum comprising cancer therapies. A total of 28 mainly sporadic TNBC patients were treated with cisplatin monotherapy in the neo-adjuvant setting (Silver et al. (2010) J. Clin. Oncol. 28, 1145-1153). Cisplatin response was measured using the semiquantitative Miller-Payne score by pathological assessment of surgical samples after therapy (Ogston et al. (2003) Breast 12, 320-327). […] Therapeutic response was measured using the semiquantitative Miller-Payne grading system, which estimates the percent reduction in invasive tumor volume and cellularity based on pathological assessment of surgical samples after therapy (Ogston, K. N., et al., A new histological grading system to assess response of breastcancers to primary chemotherapy: prognostic significance and survival. Breast 2003; 12: 320-327). […]

SMILES: N.N.[Cl][Pt][Cl] [cisplatin]
- patients with greater than 90% tumor reduction (10 of 28 patients, preoperative cisplatin monotherapy): 36%
- patients progressed on therapy (of 28 patients): 4
- pathologic complete response (pCR), number of women (of 28 patients, 2 of them had BRCA1-associated cancers): 6
